ChEMBL document CHEMBL1201862, “PubChem BioAssay data set” (2004)
Calls of active or inactive are those of the source.

Tests used:
[1] = viability of PTEN-deleted HCT116 cells – cell-based, HCT116 PTEN knockout, dose response (AID 1047); format: functional;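 also: HCT116 colon tumor cells with PTEN knocked out; cells exposed to compound for 60 hours before readout; potency for loss of cell viability measured by luminescence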
[2] = viability of HCT116 lacking mutant beta-catenin – cell-based, human colon tumor, dose response (AID 1045); format: functional;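 also: HCT116 colon tumor cells with beta catenin knocked out; cells exposed to compound for 60 hours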
[3] = test system: Streptococcus sp. 'group A'; assay: Streptococcus pyogenes SK(-)GAS viability under kanamycin – luminescence, BacTiterGlo, confirmation, counter-screen for streptokinase expression inhibitor project, dose response (AID 1900); format: functional, organism-based
[4] = test system: Streptococcus; assay: GAS UMAA2166 growth inhibition – luminescence, BacTiterGlo, counter-screen for streptokinase expression inhibitor project, dose response (AID 1915); format: functional, organism-based;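 also: potency for reduction of bacterial viability or growth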
[5] = target: T1, Streptokinase A (Streptococcus pyogenes serotype M1, UniProt P10520); assay: viability-normalized secreted streptokinase activity reduction – plasminogen activation absorbance, OD405, dose response (AID 1914); format: functional, Streptococcus pyogenes M1 GAS;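 also: secreted streptokinase activity via plasminogen activation per viability signal from cell pellet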
T1 sequence (P10520 whole entry): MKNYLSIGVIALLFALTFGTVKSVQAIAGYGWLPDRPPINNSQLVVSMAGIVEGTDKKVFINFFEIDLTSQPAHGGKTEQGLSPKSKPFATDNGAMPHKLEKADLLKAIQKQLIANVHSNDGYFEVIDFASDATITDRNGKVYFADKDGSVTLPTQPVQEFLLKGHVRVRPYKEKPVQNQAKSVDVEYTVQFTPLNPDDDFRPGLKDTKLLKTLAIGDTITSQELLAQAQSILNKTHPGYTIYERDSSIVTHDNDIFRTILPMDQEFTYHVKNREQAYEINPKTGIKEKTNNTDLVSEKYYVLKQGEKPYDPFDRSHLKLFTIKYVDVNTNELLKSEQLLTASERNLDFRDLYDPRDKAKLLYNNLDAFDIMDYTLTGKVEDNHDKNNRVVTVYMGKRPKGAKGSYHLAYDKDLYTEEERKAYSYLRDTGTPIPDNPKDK

[6] = target: T2, Sentrin-specific protease 8 (Homo sapiens, UniProt Q96LD8); format: functional;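 also: luminescence read-out of SENP8 inhibition, dose-response confirmation following an ultra-high-throughput screen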
T2 sequence (Q96LD8 whole entry): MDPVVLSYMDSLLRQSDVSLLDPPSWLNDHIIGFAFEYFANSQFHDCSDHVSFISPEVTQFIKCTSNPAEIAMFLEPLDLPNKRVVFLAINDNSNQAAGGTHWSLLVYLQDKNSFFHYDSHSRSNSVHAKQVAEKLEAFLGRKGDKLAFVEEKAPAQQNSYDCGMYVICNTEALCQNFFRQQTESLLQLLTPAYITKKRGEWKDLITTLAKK

[7] = target: T3, Caspase-3 (Homo sapiens, UniProt P42574); format: functional;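 also: Dose-response selectivity test against caspase-3 for candidate inhibitors of sentrin-specific proteases (SENPs)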
T3 sequence (P42574 whole entry): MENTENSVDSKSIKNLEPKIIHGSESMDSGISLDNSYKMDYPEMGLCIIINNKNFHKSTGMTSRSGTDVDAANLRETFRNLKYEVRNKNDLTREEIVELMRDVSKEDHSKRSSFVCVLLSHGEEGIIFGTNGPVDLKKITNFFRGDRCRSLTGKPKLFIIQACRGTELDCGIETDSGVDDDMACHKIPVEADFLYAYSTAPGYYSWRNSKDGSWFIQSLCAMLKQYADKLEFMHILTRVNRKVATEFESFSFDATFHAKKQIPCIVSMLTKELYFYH

[8] = target: T4, Sentrin-specific protease 7 (Homo sapiens, UniProt Q9BQF6); format: functional;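 also: Luminescence-based dose-response confirmation of ultra-high-throughput screening hits, measuring inhibition of SENP7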
T4 sequence (Q9BQF6 whole entry): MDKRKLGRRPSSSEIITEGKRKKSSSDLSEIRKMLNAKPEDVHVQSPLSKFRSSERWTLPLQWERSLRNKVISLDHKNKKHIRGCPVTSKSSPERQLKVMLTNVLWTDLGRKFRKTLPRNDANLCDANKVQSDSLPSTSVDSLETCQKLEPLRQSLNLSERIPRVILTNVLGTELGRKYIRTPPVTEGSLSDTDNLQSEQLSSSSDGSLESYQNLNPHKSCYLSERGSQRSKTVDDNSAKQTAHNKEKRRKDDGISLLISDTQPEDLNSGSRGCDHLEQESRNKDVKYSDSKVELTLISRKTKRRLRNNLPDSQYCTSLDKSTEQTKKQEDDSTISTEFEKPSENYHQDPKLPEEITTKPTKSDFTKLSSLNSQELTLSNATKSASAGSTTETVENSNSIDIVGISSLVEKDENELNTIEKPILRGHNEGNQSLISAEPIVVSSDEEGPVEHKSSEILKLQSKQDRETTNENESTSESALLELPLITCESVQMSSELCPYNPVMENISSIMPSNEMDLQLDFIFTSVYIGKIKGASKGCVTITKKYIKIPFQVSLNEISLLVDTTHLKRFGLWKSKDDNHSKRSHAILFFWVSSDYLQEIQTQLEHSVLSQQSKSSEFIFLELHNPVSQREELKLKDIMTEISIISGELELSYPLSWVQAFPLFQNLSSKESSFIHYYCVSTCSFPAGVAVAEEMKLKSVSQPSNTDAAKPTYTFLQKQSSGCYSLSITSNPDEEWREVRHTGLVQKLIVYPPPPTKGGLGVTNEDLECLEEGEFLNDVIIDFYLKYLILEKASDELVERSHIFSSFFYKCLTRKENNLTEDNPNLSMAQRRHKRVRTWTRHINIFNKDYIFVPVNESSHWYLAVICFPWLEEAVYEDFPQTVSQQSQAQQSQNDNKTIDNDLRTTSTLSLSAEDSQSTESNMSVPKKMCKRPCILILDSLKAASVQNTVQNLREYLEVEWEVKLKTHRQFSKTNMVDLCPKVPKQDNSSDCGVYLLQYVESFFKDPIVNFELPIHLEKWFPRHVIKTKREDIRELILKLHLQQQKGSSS

[9] = target: T5, Protein skinhead-1 (Caenorhabditis elegans, UniProt P34707); format: functional
T5 sequence (P34707 whole entry): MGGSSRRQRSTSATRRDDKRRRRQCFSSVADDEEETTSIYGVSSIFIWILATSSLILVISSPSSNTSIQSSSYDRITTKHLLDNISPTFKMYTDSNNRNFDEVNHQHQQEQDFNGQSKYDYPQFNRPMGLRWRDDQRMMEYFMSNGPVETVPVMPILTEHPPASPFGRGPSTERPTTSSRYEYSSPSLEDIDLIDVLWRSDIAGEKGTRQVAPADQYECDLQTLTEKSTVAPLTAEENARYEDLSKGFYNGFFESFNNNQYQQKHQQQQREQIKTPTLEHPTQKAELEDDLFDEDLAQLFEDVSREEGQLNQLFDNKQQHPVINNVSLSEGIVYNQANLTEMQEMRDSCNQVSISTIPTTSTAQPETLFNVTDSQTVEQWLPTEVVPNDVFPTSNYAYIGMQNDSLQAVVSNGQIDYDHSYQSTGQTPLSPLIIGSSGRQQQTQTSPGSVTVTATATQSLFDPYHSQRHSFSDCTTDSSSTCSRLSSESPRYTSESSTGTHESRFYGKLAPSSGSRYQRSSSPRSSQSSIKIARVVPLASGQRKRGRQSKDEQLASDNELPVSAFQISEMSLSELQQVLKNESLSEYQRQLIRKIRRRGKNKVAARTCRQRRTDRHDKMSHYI

[10] = target: T6, Sentrin-specific protease 6 (Homo sapiens, UniProt Q9GZR1); format: functional;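 also: Luminescence-based dose-response confirmatory assay of SENP6 inhibition, following up an ultra-high-throughput screen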
T6 sequence (Q9GZR1 whole entry): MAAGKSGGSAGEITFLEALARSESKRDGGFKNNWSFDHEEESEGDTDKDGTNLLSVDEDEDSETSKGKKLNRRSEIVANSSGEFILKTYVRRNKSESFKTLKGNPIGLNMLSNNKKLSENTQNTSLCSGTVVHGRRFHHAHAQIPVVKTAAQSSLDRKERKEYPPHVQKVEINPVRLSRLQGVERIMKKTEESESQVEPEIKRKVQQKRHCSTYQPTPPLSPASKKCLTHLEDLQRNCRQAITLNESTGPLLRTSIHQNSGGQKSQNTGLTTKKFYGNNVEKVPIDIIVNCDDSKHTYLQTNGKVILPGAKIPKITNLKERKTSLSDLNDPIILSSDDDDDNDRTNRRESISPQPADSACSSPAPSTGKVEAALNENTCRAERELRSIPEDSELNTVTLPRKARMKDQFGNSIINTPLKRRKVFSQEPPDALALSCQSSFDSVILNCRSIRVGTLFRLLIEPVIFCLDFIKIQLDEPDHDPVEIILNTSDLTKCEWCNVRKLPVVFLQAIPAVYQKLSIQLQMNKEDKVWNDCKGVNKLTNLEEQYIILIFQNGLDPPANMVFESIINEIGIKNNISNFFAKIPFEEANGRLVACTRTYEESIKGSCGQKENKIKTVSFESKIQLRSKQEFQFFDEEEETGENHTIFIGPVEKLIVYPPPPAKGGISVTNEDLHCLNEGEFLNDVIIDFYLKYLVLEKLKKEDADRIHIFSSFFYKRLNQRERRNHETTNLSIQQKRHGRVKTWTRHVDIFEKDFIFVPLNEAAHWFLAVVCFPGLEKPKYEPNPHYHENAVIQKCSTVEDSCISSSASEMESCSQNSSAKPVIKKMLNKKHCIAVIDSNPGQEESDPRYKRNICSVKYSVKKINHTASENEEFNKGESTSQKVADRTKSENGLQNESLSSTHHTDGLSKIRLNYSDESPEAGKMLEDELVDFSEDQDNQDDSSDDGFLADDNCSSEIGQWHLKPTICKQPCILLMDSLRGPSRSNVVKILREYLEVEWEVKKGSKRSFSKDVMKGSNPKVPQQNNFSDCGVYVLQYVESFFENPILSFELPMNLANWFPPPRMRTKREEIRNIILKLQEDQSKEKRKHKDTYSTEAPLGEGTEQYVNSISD

[11] = target: T7, Replicative DNA helicase DnaB (Mycobacterium tuberculosis, UniProt P9WMR3); assay: DnaB intein splicing inhibitors, dose response, biochemical, cell-free fluorescence (AID 449749); format: functional
T7 sequence (P9WMR3 whole entry): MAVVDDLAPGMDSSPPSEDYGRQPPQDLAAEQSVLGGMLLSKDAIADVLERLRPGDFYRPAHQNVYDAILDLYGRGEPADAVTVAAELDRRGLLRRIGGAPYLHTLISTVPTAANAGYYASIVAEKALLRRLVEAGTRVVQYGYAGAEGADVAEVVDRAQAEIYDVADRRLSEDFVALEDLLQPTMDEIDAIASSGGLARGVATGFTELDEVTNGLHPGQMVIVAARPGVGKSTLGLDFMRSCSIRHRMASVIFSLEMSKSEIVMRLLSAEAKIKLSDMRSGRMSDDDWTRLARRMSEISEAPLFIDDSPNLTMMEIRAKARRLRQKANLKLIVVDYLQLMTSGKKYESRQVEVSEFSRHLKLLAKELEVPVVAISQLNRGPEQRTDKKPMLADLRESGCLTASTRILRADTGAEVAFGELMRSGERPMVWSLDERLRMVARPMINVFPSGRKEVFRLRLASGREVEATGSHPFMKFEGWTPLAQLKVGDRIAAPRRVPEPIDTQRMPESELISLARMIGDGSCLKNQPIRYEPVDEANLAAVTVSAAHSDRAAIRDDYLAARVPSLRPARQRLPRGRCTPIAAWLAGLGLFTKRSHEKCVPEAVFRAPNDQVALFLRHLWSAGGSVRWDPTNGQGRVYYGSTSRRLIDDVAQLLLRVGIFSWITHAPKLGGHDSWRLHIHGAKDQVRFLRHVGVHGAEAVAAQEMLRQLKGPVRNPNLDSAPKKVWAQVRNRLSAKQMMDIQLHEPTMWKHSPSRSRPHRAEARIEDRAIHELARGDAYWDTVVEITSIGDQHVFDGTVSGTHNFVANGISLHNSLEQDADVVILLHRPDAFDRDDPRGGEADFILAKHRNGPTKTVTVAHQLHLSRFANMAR

[12] = target: T8, Protein RecA (Mycobacterium tuberculosis, UniProt P9WHJ3); assay: Fluorescence Cell-Free Homogeneous Dose Retest to Identify Inhibitors of RecA-Intein Splicing Activity. [Related pubchem assays (depositor defined):AID2097, AID2223, AID489010, AID492950]; format: functional
T8 sequence (P9WHJ3 whole entry): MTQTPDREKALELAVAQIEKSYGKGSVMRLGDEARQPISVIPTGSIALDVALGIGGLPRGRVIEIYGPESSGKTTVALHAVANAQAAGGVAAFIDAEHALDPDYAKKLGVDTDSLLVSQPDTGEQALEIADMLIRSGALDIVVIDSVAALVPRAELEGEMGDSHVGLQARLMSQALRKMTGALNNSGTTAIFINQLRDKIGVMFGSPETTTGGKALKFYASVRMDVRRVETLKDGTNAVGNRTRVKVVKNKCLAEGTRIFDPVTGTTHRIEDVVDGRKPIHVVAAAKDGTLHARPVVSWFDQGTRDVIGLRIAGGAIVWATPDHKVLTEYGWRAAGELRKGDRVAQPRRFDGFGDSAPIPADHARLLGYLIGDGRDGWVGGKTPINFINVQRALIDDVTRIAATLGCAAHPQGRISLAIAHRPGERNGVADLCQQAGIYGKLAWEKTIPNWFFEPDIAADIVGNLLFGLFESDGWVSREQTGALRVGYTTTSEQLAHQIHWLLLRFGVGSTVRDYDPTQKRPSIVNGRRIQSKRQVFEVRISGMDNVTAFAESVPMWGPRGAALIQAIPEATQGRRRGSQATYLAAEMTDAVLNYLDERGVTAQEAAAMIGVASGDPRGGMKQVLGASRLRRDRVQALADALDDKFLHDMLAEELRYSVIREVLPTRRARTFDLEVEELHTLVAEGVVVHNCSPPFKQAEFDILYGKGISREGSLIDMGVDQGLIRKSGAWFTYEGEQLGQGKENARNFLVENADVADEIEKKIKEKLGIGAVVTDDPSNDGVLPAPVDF

| Structure (SMILES) | EC50 [1] | EC50 [2] | IC50 [9] | further results |
| --- | --- | --- | --- | --- |
| CC(C)=CC(=O)Nc1nnc(-c2ccc(F)cc2)s1 | 18.2 µM (active) | 13.8 µM (active) |  |  |
| CC(C)NC(=O)NC(=O)CSc1nnc(COc2ccccc2F)n1C(C)C1CC2CCC1C2 (centres undefined) | 19 µM (active) | 20.8 µM (active) |  | EC50 [3]: 5.26 µM (active); EC50 [4]: > 150 µM (not active); EC50 [5]: 16.8 µM (active) |
| COc1cc2c(cc1OC)CN(c1nc(CN3CCOCC3)nc3sc4c(c13)CCCC4)CC2 | 4.64 µM (active) | 6.69 µM (active) |  |  |
| COC(=O)c1ccc(-c2csc(NC(=O)c3ccc(S(=O)(=O)N4CCc5ccccc5C4)cc3)n2)cc1 | 10.3 µM (active) | 10.2 µM (active) |  |  |
| Clc1ccsc1-c1csc(-c2cccnc2)n1 |  |  | > 100 µM (inactive) | IC50 [6]: 22.6 µM (active); IC50 [7]: 19.4 µM (active); IC50 [8]: 6.3 µM (active); IC50 [10]: 11.3 µM (active) |
| COc1ccc(-c2cc(C(=O)n3cnc4ccccc43)c3ccccc3n2)cc1 |  |  | > 100 µM (inactive) | AC50 [11]: > 380 µM (inactive); EC50 [12]: 3.72 µM (active) |
